According to patent US4197312A, “Alkali metal and alkaline earth metal salts of benzoylacetonitriles” (American Cyanamid Company, priority 1978, dated 1980):

Tests used:
[1] = test system: Adjuvant induced arthritis; experiment: Adjuvant induced arthritis in the rat (primary lesion, paw swelling); format: in vivo, rat (Royal Hart, Wistar strain); conditions: once daily days 0 to 13
Description: Adjuvant induced arthritis in the rat
Groups of three Royal Hart, Wistar strain rats weighing 200±10 g. each were injected intradermally in the right hind paw with Freund's adjuvant (dried human tubercle bacilli in a mineral oil vehicle) at a dose of 2 mg./kg. of body weight. The test compounds were administered orally in a 1.5% starch vehicle at various doses once daily on days 0 to 13 post challenge. Control rats were treated in a similar manner, but given only starch vehicle. On the 14th and 21st day post challenge the diameter of the injected paw was measured by micrometer caliper. The volume of inflamed paws were estimated from these measurements and the effects of each compound are expressed as percent inhibition of swelling was compared to controls. Table I records the results of these tests conducted with representative compounds of this invention and known anti-inflammatory agents. The active compounds of this invention suppress the progression of the arthritis and associated joint deterioration.

[2] = test system: arthritic paw swelling; joint and bone deterioration; conditions: literature (S. Wong et al.; G. R. Bobalick et al.); cited from earlier work

Q: For `CC(=O)Oc1ccccc1C(=O)O` [Aspirin], which “(Primary Lesion) % Inhibition of Swelling Day 14” value ([1]; oral 50 mg./kg.) is on record?
A: 23%

Q: And the “(Primary Lesion) % Inhibition of Swelling Day 21” value ([1]; oral 50 mg./kg.)?
A: 3%

Q: What about the “(Primary Lesion) % Inhibition of Swelling Day 14” value ([1]; oral 100 mg./kg.) of the same molecule?
A: 36%

Q: What about the “(Primary Lesion) % Inhibition of Swelling Day 21” value ([1]; oral 100 mg./kg.) of the same molecule?
A: 13%

Q: And the “(Primary Lesion) % Inhibition of Swelling Day 14” value ([1]; oral 200 mg./kg.)?
A: 48%

Q: And the “(Primary Lesion) % Inhibition of Swelling Day 21” value ([1]; oral 200 mg./kg.)?
A: 27%

Q: And the “(Primary Lesion) % Inhibition of Swelling Day 14” value ([1]; oral 400 mg./kg.)?
A: 73%

Q: What about the “(Primary Lesion) % Inhibition of Swelling Day 21” value ([1]; oral 400 mg./kg.) of the same molecule?
A: 48%

Q: For `N#CCC(=O)c1ccccc1.[Na]` [Benzoylacetonitrile sodium salt, Benzoylacetonitrile, sodium salt], which “(Primary Lesion) % Inhibition of Swelling Day 14” value ([1]; oral 50 mg./kg.) is on record?
A: 59%

Q: What about the “(Primary Lesion) % Inhibition of Swelling Day 21” value ([1]; oral 50 mg./kg.) of the same molecule?
A: 45%

Q: Which results are given for `COc1ccc2c(c1)c(CC(=O)O)c(C)n2C(=O)c1ccc(Cl)cc1` [Indomethacin]?
A: (Primary Lesion) % Inhibition of Swelling Day 14 ([1]; oral 0.25 mg./kg.): 30%; (Primary Lesion) % Inhibition of Swelling Day 21 ([1]; oral 0.25 mg./kg.): 4%; (Primary Lesion) % Inhibition of Swelling Day 14 ([1]; oral 0.5 mg./kg.): 40%; (Primary Lesion) % Inhibition of Swelling Day 21 ([1]; oral 0.5 mg./kg.): 20%; (Primary Lesion) % Inhibition of Swelling Day 14 ([1]; oral 1 mg./kg.): 46%; (Primary Lesion) % Inhibition of Swelling Day 21 ([1]; oral 1 mg./kg.): 19%; (Primary Lesion) % Inhibition of Swelling Day 14 ([1]; oral 2 mg./kg.): 51%; (Primary Lesion) % Inhibition of Swelling Day 21 ([1]; oral 2 mg./kg.): 24%; arthritic paw swelling [2]: inhibit arthritic paw swelling; joint and bone deterioration [2]: prevent joint and bone deterioration

Q: Which results are given for `CCCCC1C(=O)N(c2ccccc2)N(c2ccccc2)C1=O` [Phenylbutazone]?
A: (Primary Lesion) % Inhibition of Swelling Day 14 ([1]; oral 18.5 mg./kg.): 31%; (Primary Lesion) % Inhibition of Swelling Day 21 ([1]; oral 18.5 mg./kg.): 7%; (Primary Lesion) % Inhibition of Swelling Day 14 ([1]; oral 37.5 mg./kg.): 56%; (Primary Lesion) % Inhibition of Swelling Day 21 ([1]; oral 37.5 mg./kg.): 14%; (Primary Lesion) % Inhibition of Swelling Day 14 ([1]; oral 75 mg./kg.): 62%; (Primary Lesion) % Inhibition of Swelling Day 21 ([1]; oral 75 mg./kg.): 28%; (Primary Lesion) % Inhibition of Swelling Day 14 ([1]; oral 150 mg./kg.): 75%; (Primary Lesion) % Inhibition of Swelling Day 21 ([1]; oral 150 mg./kg.): 44%

Q: Which results are given for `N#CCC(=O)c1ccc(F)cc1.[Na]` [p-Fluorobenzoylacetonitrile sodium salt, p-Fluorobenzoylacetonitrile, sodium salt]?
A: (Primary Lesion) % Inhibition of Swelling Day 14 ([1]; oral 50 mg./kg.): 53%; (Primary Lesion) % Inhibition of Swelling Day 21 ([1]; oral 50 mg./kg.): 32%
